Results on 13 compounds are retold here after US20100168421A1, “A NEW PEPTIDE DEFORMYLASE INHIBITOR COMPOUND AND MANUFACTURING PROCESS THEREOF” (priority 2007, published 2010).

Common to all, as to type: cell-based
The subject of assay [1] is Vancomycin-resistant Enterococcus faecium. The assay is described as follows: MIC microdilution, VR E. faecium. The note with it: read-out: MIC Vancomycin-resistant Enterococcus faecium. The protocol: (§1) Minimum inhibitory concentrations (MICs) were determined using the microdilution method in 96-well format plates. Each of the compounds of Examples was dissolved in dimethyl sulfoxide to a concentration of 2 mg/mL and stored at 4° C. until used. They were diluted in Mueller-Hinton Broth (MHB) and used for MIC determination. The range of concentrations tested was […] final concentration using a two-fold dilution system. Plates were incubated at 37° C. and MIC were recorded after 24 hours of incubation for bacteria.
(§2) Linezolid and vancomycin were used as standard antibiotics, respectively.

The subject of assay [2] is Streptococcus Pneumoniae Pen NS. Kind of assay: MIC microdilution, S. Pneumoniae Pen NS. Particulars: read-out: MIC Streptococcus Pneumoniae Pen NS. The protocol:
as §1, §2

The test system of assay [3] is Streptococcus Pneumoniae Pen S. Kind of assay: MIC microdilution, S. Pneumoniae Pen S. The note with it: read-out: MIC Streptococcus Pneumoniae Pen S. The protocol:
as §1, §2

The test system of assay [4] is Vancomycin-resistant Enterococcus faecalis. The assay is described as follows: MIC microdilution, VR E. faecalis. The note with it: read-out: MIC Vancomycin-resistant Enterococcus faecalis. As to the method:
as §1, §2

In another assay the test system is Streptococcus pyogenes. The assay is described as follows: MIC microdilution, S. pyogenes. Particulars: read-out: MIC Streptococcus pyogenes. The protocol:
as §1, §2

The mark [5] stands for this setting: microdilution, Mueller-Hinton Broth, 37° C., 24 hours.

≈ marks a conversion by molar mass, not a printed value. Where two headings read alike, the source gives them in different places.

As for `CC(C)(C)[C@H](NC(=O)[C@H](CC1CCCC1)CN(O)C=O)C(=O)N1CCC(NCc2ccc(C#N)cc2)CC1` [Example 3, (R)-N-{(S)-1-[4-(4-Cyano-benzylamino)-piperidine-1-carbonyl]-2,2-dimethyl-propyl}-2-cyclopentylmethyl-3-(formyl-hydroxy-amino)-propionamide], the MIC in assay [1] (setting [5]) amounted to 0.4 µg/mL (≈ 0.761 µM); in assay [2] (setting [5]), 0.4 µg/mL (≈ 0.761 µM); in assay [3] (setting [5]) it was 0.1 µg/mL (≈ 0.19 µM); in assay [4] (setting [5]), 0.8 µg/mL (≈ 1.52 µM); with Streptococcus pyogenes (setting [5]), 0.2 µg/mL (≈ 0.38 µM).
As to `CC(C)(C)[C@H](NC(=O)[C@H](CC1CCCC1)CN(O)C=O)C(=O)N1CCC(NCc2ccc(F)cc2)CC1` [Example 4, (R)-2-Cyclopentylmethyl-N-{(S)-1-[4-(4-fluoro-benzylamino)-piperidine-1-carbonyl]-2,2-dimethyl-propyl}-3-(formyl-hydroxy-amino)-propionamide], the MIC is 0.4 µg/mL (≈ 0.771 µM) in assay [1] (setting [5]); 0.4 µg/mL (≈ 0.771 µM) in assay [2] (setting [5]); 0.2 µg/mL (≈ 0.386 µM) in assay [3] (setting [5]); 3.1 µg/mL (≈ 5.98 µM) in assay [4] (setting [5]); 0.4 µg/mL (≈ 0.771 µM) in the assay with Streptococcus pyogenes (setting [5]).
On to `COC(=O)c1ccc(CNC2CCN(C(=O)[C@@H](NC(=O)[C@H](CC3CCCC3)CN(O)C=O)C(C)(C)C)CC2)cc1` [Example 7, 4-[(1-{(S)-2-[(R)-2-Cyclopentylmethyl-3-(formyl-hydroxy-amino)-propionylamino]-3,3-dimethyl-butyryl}-piperidin-4-ylamino)-methyl]-benzoic acid methyl ester], for which the minimal inhibitory concentration (MIC) in assay [1] (setting [5]) was determined as 3.1 µg/mL (≈ 5.55 µM); in assay [2] (setting [5]) it was 1.6 µg/mL (≈ 2.86 µM); in assay [3] (setting [5]), 0.4 µg/mL (≈ 0.716 µM); in assay [4] (setting [5]), 6.3 µg/mL (≈ 11.3 µM); in the assay on Streptococcus pyogenes (setting [5]) it was 0.8 µg/mL (≈ 1.43 µM).
As for `CC(C)(C)[C@H](NC(=O)[C@H](CC1CCCC1)CN(O)C=O)C(=O)N1CCC(NCc2ccccn2)CC1` [Example 9, (R)-2-Cyclopentylmethyl-N-((S)-2,2-dimethyl-1-{4-[(pyridine-2-ylmethyl)-amino]-piperidine-1-carbonyl}-propyl)-3-(formyl-hydroxy-amino)-propionamide], the MIC in assay [1] (setting [5]) was 12.5 µg/mL (≈ 24.9 µM); in assay [2] (setting [5]) it was 1.6 µg/mL (≈ 3.19 µM); in assay [3] (setting [5]) it was 1.6 µg/mL (≈ 3.19 µM); in assay [4] (setting [5]) it was 12.5 µg/mL (≈ 24.9 µM); with Streptococcus pyogenes (setting [5]), 0.8 µg/mL (≈ 1.59 µM).
As to `COc1ccc(CNC2CCN(C(=O)[C@@H](NC(=O)[C@H](CC3CCCC3)CN(O)C=O)C(C)(C)C)CC2)c(OC)c1` [Example 12, (R)-2-Cyclopentylmethyl-N-{(S)-1-[4-(2,4-dimethoxy-benzylamino)-piperidine-1-carbonyl]-2,2-dimethyl-propyl}-3-(formyl-hydroxy-amino)-propionamide], the MIC in assay [1] (setting [5]) stood at 3.1 µg/mL (≈ 5.53 µM); in assay [2] (setting [5]), 0.8 µg/mL (≈ 1.43 µM); in assay [3] (setting [5]), 0.2 µg/mL (≈ 0.357 µM); in assay [4] (setting [5]) it was 6.3 µg/mL (≈ 11.2 µM); with Streptococcus pyogenes (setting [5]), 0.2 µg/mL (≈ 0.357 µM).
For the compound `CC(C)(C)[C@H](NC(=O)[C@H](CC1CCCC1)CN(O)C=O)C(=O)N1CCC(NCc2cc(F)c(F)cc2F)CC1` [Example 14, (R)-2-Cyclopentylmethyl-N-{(S)-2,2-dimethyl-1-[4-(2,4,5-trifluoro-benzylamino)-piperidine-1-carbonyl]-propyl}-3-(formyl-hydroxy-amino)-propionamide], the MIC amounted to 0.2 µg/mL (≈ 0.361 µM) in assay [1] (setting [5]); 0.4 µg/mL (≈ 0.721 µM) in assay [2] (setting [5]); 0.1 µg/mL (≈ 0.18 µM) in assay [3] (setting [5]); 1.6 µg/mL (≈ 2.88 µM) in assay [4] (setting [5]); 0.1 µg/mL (≈ 0.18 µM) in the assay with Streptococcus pyogenes (setting [5]).
In the case of `CC(C)(C)[C@H](NC(=O)[C@H](CC1CCCC1)CN(O)C=O)C(=O)N1CCC(Nc2ccccc2)CC1` [Example 15, (R)-2-Cyclopentylmethyl-N-[(S)-2,2-dimethyl-1-(4-phenylamino-piperidine-1-carbonyl)-propyl]-3-(formyl-hydroxy-amino)-propionamide], the minimal inhibitory concentration (MIC) was determined as 0.4 µg/mL (≈ 0.822 µM) in assay [1] (24 h); 0.4 µg/mL (≈ 0.822 µM) in assay [2] (24 h); 0.1 µg/mL (≈ 0.205 µM) in assay [3] (24 h); 1.6 µg/mL (≈ 3.29 µM) in assay [4] (24 h); 0.1 µg/mL (≈ 0.205 µM) in the assay with Streptococcus pyogenes (24 h).
With `CC(C)(C)[C@H](NC(=O)[C@H](CC1CCCC1)CN(O)C=O)C(=O)N1CCC(Nc2ccc(C#N)cc2)CC1` [Example 16, (R)-N-{(S)-1-[4-(4-Cyano-phenylamino)-piperidine-1-carbonyl]-2,2-dimethyl-propyl}-2-cyclopentylmethyl-3-(formyl-hydroxy-amino)-propionamide], the minimal inhibitory concentration (MIC) came to 0.4 µg/mL (≈ 0.782 µM) in assay [1] (setting [5]); 1.6 µg/mL (≈ 3.13 µM) in assay [2] (setting [5]); 0.1 µg/mL (≈ 0.195 µM) in assay [3] (setting [5]); 3.1 µg/mL (≈ 6.06 µM) in assay [4] (setting [5]); 0.1 µg/mL (≈ 0.195 µM) in the assay with Streptococcus pyogenes (setting [5]).
`Cc1ccc(NC2CCN(C(=O)[C@@H](NC(=O)[C@H](CC3CCCC3)CN(O)C=O)C(C)(C)C)CC2)cc1` [Example 18, (R)-2-Cyclopentylmethyl-N-[(S)-2,2-dimethyl-1-(4-p-tolylamino-piperidine-1-carbonyl)-propyl]-3-(formyl-hydroxy-amino)-propionamide]: the MIC in assay [1] (setting [5]) is 0.4 µg/mL (≈ 0.799 µM); in assay [2] (setting [5]), 0.4 µg/mL (≈ 0.799 µM); in assay [3] (setting [5]) it was 0.2 µg/mL (≈ 0.399 µM); in assay [4] (setting [5]), 3.1 µg/mL (≈ 6.19 µM); in the assay on Streptococcus pyogenes (setting [5]), 0.1 µg/mL (≈ 0.2 µM).
In the case of `COc1ccc(NC2CCN(C(=O)[C@@H](NC(=O)[C@H](CC3CCCC3)CN(O)C=O)C(C)(C)C)CC2)cc1` [Example 19, (R)-2-Cyclopentylmethyl-3-(formyl-hydroxy-amino)-N-{(S)-1-[4-(4-methoxy-phenylamino)-piperidine-1-carbonyl]-2,2-dimethyl-propyl}-propionamide], the MIC in assay [1] (setting [5]) is 1.6 µg/mL (≈ 3.1 µM); in assay [2] (setting [5]), 0.2 µg/mL (≈ 0.387 µM); in assay [3] (setting [5]), 0.4 µg/mL (≈ 0.774 µM); in assay [4] (setting [5]), 3.1 µg/mL (≈ 6 µM); with Streptococcus pyogenes (setting [5]), 0.2 µg/mL (≈ 0.387 µM).
In the case of `COC(=O)c1ccc(NC2CCN(C(=O)[C@@H](NC(=O)[C@H](CC3CCCC3)CN(O)C=O)C(C)(C)C)CC2)cc1` [Example 21, 4-(1-[(S)-2-[(R)-2-Cyclopentylmethyl-3-(formyl-hydroxy-amino)-propionylamino]-3,3-dimethyl-butyryl]-piperidin-4-ylamino)-benzoic acid methyl ester], the MIC amounted to 1.6 µg/mL (≈ 2.94 µM) in assay [1] (setting [5]); 0.8 µg/mL (≈ 1.47 µM) in assay [2] (setting [5]); 0.2 µg/mL (≈ 0.367 µM) in assay [3] (setting [5]); 6.3 µg/mL (≈ 11.6 µM) in assay [4] (setting [5]); 0.4 µg/mL (≈ 0.734 µM) in the assay with Streptococcus pyogenes (setting [5]).
For the compound `CC(C)(C)[C@H](NC(=O)[C@H](CC1CCCC1)CN(O)C=O)C(=O)N1CCC(Nc2ccc(F)cc2F)CC1` [Example 23, (R)-2-Cyclopentylmethyl-N-{(S)-1-[4-(2,4-difluoro-phenylamino)-piperidine-1-carbonyl]-2,2-dimethyl-propyl}-3-(formyl-hydroxy-amino)-propionamide], the MIC is 0.2 µg/mL (≈ 0.383 µM) in assay [1] (24 h); 0.2 µg/mL (≈ 0.383 µM) in assay [2] (24 h); 0.05 µg/mL (≈ 0.0957 µM) in assay [3] (24 h); 3.1 µg/mL (≈ 5.93 µM) in assay [4] (24 h); 0.1 µg/mL (≈ 0.191 µM) in the assay with Streptococcus pyogenes (24 h).
Regarding `COc1ccc(NC2CCN(C(=O)[C@@H](NC(=O)[C@H](CC3CCCC3)CN(O)C=O)C(C)(C)C)CC2)c(OC)c1` [Example 24, (R)-2-Cyclopentylmethyl-N-{(S)-1-[4-(2,4-dimethoxy-phenylamino)-piperidine-1-carbonyl]-2,2-dimethyl-propyl}-3-(formyl-hydroxy-amino)-propionamide], the minimum inhibitory concentration (MIC) in assay [1] (setting [5]) was determined as 0.8 µg/mL (≈ 1.46 µM); in assay [2] (setting [5]), 0.4 µg/mL (≈ 0.732 µM); in assay [3] (setting [5]), 0.2 µg/mL (≈ 0.366 µM); in assay [4] (setting [5]), 6.3 µg/mL (≈ 11.5 µM); with Streptococcus pyogenes (setting [5]) it was 0.1 µg/mL (≈ 0.183 µM).
